Structures can show the parent of a compound that is named as a salt. Where two headings read alike, the source gives them in different places.
Legend:
Human MAO-B = target: T1, Human MAO-B (Homo sapiens, UniProt P27338); experiment: Inhibition of recombinant MAO-B (Amplex Red); assay type: biochemical; conditions: 30 min at 37° C. preincubation, 50 μM benzylamine
T1 sequence (P27338 1-520): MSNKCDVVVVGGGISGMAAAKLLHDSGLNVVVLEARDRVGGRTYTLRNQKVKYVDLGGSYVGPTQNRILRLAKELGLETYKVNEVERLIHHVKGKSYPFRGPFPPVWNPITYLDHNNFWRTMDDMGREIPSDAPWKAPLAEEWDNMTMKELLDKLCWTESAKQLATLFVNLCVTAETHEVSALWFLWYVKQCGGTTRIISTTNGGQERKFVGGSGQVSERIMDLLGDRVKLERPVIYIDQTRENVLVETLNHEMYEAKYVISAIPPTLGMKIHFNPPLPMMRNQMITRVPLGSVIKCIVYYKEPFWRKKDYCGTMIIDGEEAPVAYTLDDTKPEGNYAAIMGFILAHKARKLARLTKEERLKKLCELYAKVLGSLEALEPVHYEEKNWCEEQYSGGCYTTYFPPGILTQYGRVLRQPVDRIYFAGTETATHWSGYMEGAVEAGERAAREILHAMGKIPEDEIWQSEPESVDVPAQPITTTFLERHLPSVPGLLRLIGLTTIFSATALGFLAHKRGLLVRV
Experimental: Recombinant MAO-B was incubated in 0.1 M sodium phosphate buffer pH 7.4 with varying concentration of test compounds for 30 min at 37° C. The homogenate/protein was then incubated at 37° C. with […] Amplex® Red, 0.75 U/ml HRP and 40 μM benzylamine (mouse SSAO), 300 μM benzylamine (human SSAO), 100 μM tyramine (MAO-A) or 50 μM benzylamine (MAO-B) and the formation of resorufin was measured (excitation range 530-560 nm and emission at 590 nm) every 5 min in either a Tecan Infinite 200 or a BMG Fluorostar Optima platereader. IC50 were estimated using Graphpad Prism software.

Mouse SSAO/VAP-1 = target: T2, Mouse SSAO/VAP-1 (Mus musculus, UniProt O70423); experiment: Inhibition of amine oxidase activity of mouse SSAO/VAP-1 (3T3-L1 adipocytes, Amplex Red); assay type: biochemical; conditions: 3T3-L1 adipocyte SSAO, 30 min at 37° C. preincubation, 40 μM benzylamine
T2 construct: Adipocytes were used as an SSAO source either as adherent cells or as a homogenate; endogenous in cells; host or cells: 3T3-L1 murine fibroblasts (ATCC) differentiated into adipocytes
T2 sequence (O70423 1-765): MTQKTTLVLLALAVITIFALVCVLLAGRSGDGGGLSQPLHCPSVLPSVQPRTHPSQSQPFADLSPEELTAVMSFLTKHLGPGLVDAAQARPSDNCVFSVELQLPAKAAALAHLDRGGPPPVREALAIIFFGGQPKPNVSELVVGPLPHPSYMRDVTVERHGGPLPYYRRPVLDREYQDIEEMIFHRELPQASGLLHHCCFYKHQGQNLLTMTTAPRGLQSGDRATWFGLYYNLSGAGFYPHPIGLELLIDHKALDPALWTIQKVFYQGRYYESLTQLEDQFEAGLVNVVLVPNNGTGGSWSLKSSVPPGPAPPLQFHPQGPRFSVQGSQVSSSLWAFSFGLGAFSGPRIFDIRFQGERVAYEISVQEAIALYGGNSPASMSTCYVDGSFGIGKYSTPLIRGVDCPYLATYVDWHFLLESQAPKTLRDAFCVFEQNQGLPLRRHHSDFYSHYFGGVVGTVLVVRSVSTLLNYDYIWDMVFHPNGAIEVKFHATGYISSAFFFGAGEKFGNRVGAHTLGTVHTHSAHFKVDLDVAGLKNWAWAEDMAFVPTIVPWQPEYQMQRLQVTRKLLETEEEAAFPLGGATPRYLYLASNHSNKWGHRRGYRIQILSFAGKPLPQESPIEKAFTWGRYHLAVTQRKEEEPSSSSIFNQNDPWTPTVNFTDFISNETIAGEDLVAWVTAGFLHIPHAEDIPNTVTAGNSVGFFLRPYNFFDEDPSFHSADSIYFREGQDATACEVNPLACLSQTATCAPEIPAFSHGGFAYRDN
Description: 3T3-L1 Murine fibroblasts were purchased from the American Type Culture Collection (ATCC, Rockville, Md.). Dulbecco's Modified Eagle Medium (DMEM) and fetal calf serum (FCS), antibiotics and Amplex® Red were obtained from Invitrogen (Carlsbad, Calif.). Tissue culture plastics and black clear-bottom 96 well plates were from BD Falcon (Bedford, Mass.). Bicinchoninic acid (BCA) reagent was from Pierce (Rockford, Ill.). All other materials were obtained from Sigma (St. Louis, Mo.).
3T3-L1 Fibroblasts were cultured in DMEM supplemented with 10% heat-inactivated FCS, 2 mM L-glutamine, 100 U/L penicillin and 100 μg/L streptomycin at 37° C. in 5% CO2. For differentiation into adipocytes, fibroblasts were cultured in DMEM with FCS for 1 or 2 days postconfluence, after which the cells were cultured for 3 days in DMEM containing 10% FCS, 350 nM insulin, 0.5 mM 3-isobutyl-1-methylxanthine, 250 nM dexamethasone, and 400 nM biotin and for 3 days in DMEM containing 10% FCS and 350 nM insulin. After differentiation, adipocytes were maintained in DMEM supplemented with 10% FCS. Adipocytes were used for experiments 8 to 11 days after the onset of differentiation, and the medium was renewed 2 or 3 days prior to each experiment. For culturing in black clear-bottom 96-well plates, cells were seeded at a 1:1 cell surface ratio, and differentiation was initiated 4 days postseeding. Cells were used between days 6-12 post-differentiation and between passages 7 and 20. Adipocytes were used as an SSAO source either as adherent cells or as a homogenate.
To prepare homogenate, 10 cm dishes of adipocytes were washed with HES buffer (20 mM HEPES, 1 mM EDTA, 250 mM sucrose, pH 7.4) and scraped in HES buffer containing 10 μg/mL leupeptin, 10 μM pepstatin and 1 mM PMSF. Cells were lysed by passage through a 23 G needle followed by passage through a 27 G needle. The lysate was spun at 500 g for 5 min and fat was removed. Protein concentration of the supernatant was measured using a BCA assay according to the manufacturer's instructions. The homogenate was stored at −80° C. until needed.
(§1) To measure the SSAO activity, adipocyte homogenate (0.5 mg/mL) or adipocytes (adhering cells) containing 0.5 mM pargyline, or purified human SSAO was incubated in 0.1 M sodium phosphate buffer pH 7.4 with varying concentrations of test compounds for 30 min at 37° C. The homogenate was then incubated at 37° C. with 60 μM Amplex® Red, 0.75 U/mL HRP and 40 μM benzylamine (mouse SSAO) or 300 μM benzylamine (human SSAO) and the formation of resorufin was measured (excitation range 530-560 nm and emission at 590 nm) every 10 min in either a Tecan Infinite 200 or a BMG plate reader. The IC50 values were estimated using Graphpad Prism software. The IC50 is an estimation of the concentration of the test compound to inhibit the amine oxidase activity of SSAO/VAP-1 by 50%. The IC50 values of certain invention compounds are included in Table 1.

Human SSAO/VAP-1 = target: T3, Human SSAO/VAP-1 (Homo sapiens, UniProt Q16853); experiment: Inhibition of amine oxidase activity of purified human SSAO/VAP-1 (Amplex Red); assay type: biochemical; conditions: purified human SSAO, 30 min at 37° C. preincubation, 300 μM benzylamine
T3 sequence (Q16853 1-763): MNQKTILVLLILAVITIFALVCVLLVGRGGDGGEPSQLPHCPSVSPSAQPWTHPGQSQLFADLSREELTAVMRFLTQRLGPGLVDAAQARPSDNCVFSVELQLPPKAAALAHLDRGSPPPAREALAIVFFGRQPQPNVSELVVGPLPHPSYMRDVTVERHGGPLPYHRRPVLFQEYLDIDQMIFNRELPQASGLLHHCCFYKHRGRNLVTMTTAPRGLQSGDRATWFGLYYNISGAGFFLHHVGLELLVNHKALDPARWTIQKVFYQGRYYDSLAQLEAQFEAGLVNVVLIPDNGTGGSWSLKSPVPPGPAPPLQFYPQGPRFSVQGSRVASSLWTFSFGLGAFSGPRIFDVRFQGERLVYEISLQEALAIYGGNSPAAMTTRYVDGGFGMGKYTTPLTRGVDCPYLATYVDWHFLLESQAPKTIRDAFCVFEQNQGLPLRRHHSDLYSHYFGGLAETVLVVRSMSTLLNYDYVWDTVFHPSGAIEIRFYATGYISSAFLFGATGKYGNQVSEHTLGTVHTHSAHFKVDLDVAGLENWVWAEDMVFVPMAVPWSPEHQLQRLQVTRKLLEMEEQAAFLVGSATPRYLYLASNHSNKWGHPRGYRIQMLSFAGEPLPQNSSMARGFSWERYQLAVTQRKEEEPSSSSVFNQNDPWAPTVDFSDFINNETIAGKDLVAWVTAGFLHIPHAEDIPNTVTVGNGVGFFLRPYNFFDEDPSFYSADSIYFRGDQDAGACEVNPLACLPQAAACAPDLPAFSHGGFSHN
Experimental: as §1

SSAO/VAP-1 = target: T4, SSAO/VAP-1 (Mus musculus, UniProt O70423); experiment: In vivo inhibition of SSAO/VAP-1 activity in mouse genital fat; parameters: species or system BALB/C mice; conditions: ip
T4 construct: the genital fat was excised and frozen; The tissue was homogenized; from tissue; host or cells: genital fat of BALB/C mice
T4 sequence (O70423 1-765): T2 sequence (O70423 1-765)
Experimental: In vivo inhibition was assessed in mouse genital fat, a tissue with high SSAO/VAP-1 expression. 10 BALB/C mice (5 males and 5 females) were administered 0 mg/kg, 10 mg/kg, 30 mg/kg or 100 mg/kg SSAO/VAP-1 inhibitor by intraperitoneal injection. Two hours after administration the mice were sacrificed and the genital fat was excised and frozen. The tissue was homogenized in 0.01 M sodium phosphate buffer pH 7.4 (10 mL/g) and used to measure SSAO activity using Amplex® Red. ED50 was estimated Using Graphpad Prism software.

[1] = female BALB/C mice, intraperitoneal, genital fat SSAO activity two hours after administration, read-out: Female Mice ED50 [ip]
[2] = male BALB/C mice, intraperitoneal, genital fat SSAO activity two hours after administration, read-out: Male Mice ED50 [ip]
[3] = read-out: Female Mice ED50 [ip]

SMILES | IC50 (Human MAO-B) [nM] | IC50 (Mouse SSAO/VAP-1) [nM] | IC50 (Human SSAO/VAP-1) [nM] | ED50 (SSAO/VAP-1; [1]) [mg/kg] | ED50 (SSAO/VAP-1; [2]) [mg/kg] | ED50 (SSAO/VAP-1; [3]) [mg/kg] | ED50 (SSAO/VAP-1; read-out: Male Mice ED50 [ip]) [mg/kg]
NC/C=C(/F)COc1cccc(C(F)(F)F)c1 [(E)-3-Fluoro-4-(3-(trifluoromethyl)phenoxy)but-2-en-1-amine hydrochloride] | < 1000 | < 100000 | < 1000 | – | – | – | –
CC(C)S(=O)(=O)c1ccc(OC/C(F)=C\CN)cc1.Cl [(E)-3-Fluoro-4-(4-(isopropylsulfonyl)phenoxy)but-2-en-1-amine hydrochloride] | – | – | – | < 150 | < 150 | – | –
NC/C=C(/F)COc1ccc(S(=O)(=O)N2CCOCC2)cc1 [(E)-3-Fluoro-4-(4-(morpholinosulfonyl)phenoxy)but-2-en-1-amine hydrochloride] | < 10000 | < 10000 | < 1000 | – | – | – | –
NC/C=C(/F)COc1ccc([N+](=O)[O-])cc1 [(E)-3-Fluoro-4-(4-nitrophenoxy)but-2-en-1-amine hydrochloride] | < 1000 | < 10000 | < 1000 | – | – | – | –
NC/C=C(/F)COc1ccccc1 [(E)-3-fluoro-4-phenoxybut-2-en-1-amine hydrochloride] | < 1000 | < 10000 | < 1000 | – | – | – | –
NC/C=C(/F)COc1ccc(Cl)cc1Cl [(E)-4-(2,4-Dichlorophenoxy)-3-fluorobut-2-en-1-amine hydrochloride] | < 1000 | < 10000 | < 1000 | – | – | – | –
Cl.NC/C=C(/F)COc1ccc(S(=O)(=O)Cc2ccccc2)cc1 [(E)-4-(4-(Benzylsulfonyl)phenoxy)-3-fluorobut-2-en-1-amine hydrochloride] | – | – | – | < 300 | < 50 | – | –
CC(C)N(C(=O)c1ccc(OC/C(F)=C\CN)cc1)C(C)C [(E)-4-(4-Amino-2-fluorobut-2-enyloxy)-N,N-diisopropylbenzamide hydrochloride] | < 100000 | < 100000 | < 1000 | – | – | – | –
NC/C=C(/F)COc1ccc(C(=O)NCc2ccccc2)cc1 [(E)-4-(4-Amino-2-fluorobut-2-enyloxy)-N-benzylbenzamide hydrochloride] | < 1000 | < 1000 | < 1000 | – | – | – | –
Cl.NC/C=C(/F)COc1ccc(C(=O)NC2CCCC2)cc1 [(E)-4-(4-Amino-2-fluorobut-2-enyloxy)-N-cyclopentylbenzamide hydrochloride] | – | – | – | < 50 | < 50 | – | –
NC/C=C(\Cl)Cc1cc(F)cc(F)c1 [(Z)-3-Chloro-4-(3,5-difluorophenyl)but-2-en-1-amine hydrochloride, reference compound] | – | < 1000 | < 10000 | – | – | – | –
NC/C=C(\Cl)CCc1ccccc1 [(Z)-3-Chloro-5-phenylpent-2-en-1-amine hydrochloride, reference compound] | – | < 10000 | < 10000 | – | – | – | –
C[C@@H](NC(=O)c1ccc(OC/C(F)=C\CN)cc1)c1ccccc1.Cl [R-(E)-4-(4-Amino-2-fluorobut-2-enyloxy)-N-(1-phenylethyl)benzamide hydrochloride] | – | – | – | – | – | < 150 | < 50
C[C@H](NC(=O)c1ccc(OC/C(F)=C\CN)cc1)c1ccccc1.Cl [S-(E)-4-(4-Amino-2-fluorobut-2-enyloxy)-N-(1-phenylethyl)benzamide hydrochloride] | – | – | – | – | – | < 50 | < 50

Source: patent US8426587B2, “Haloallylamine inhibitors of SSAO/VAP-1 and uses therefor” (Pharmaxis Ltd., priority 2007, dated 2013)
